Biological target: T1, Human recombinant 5-HT7 receptor (Homo sapiens, UniProt P34969)
T1 construct: expressed in transfected cells; host or cells: CHO cells (membrane preparation)
Assay: Binding affinity for 5-HT7 serotonin receptor ([3H]LSD radioligand binding)
Details: 1 nM [3H]LSD, human recombinant 5-HT7 receptor expressed in CHO cells; for Ki: 25° C., 90 minutes; for inhibition at 10 µM: 10 μM test compound
Description: % inhibition at 10 μM and binding affinity (Ki) of the novel compound represented by the Chemical Formula 1 according to the present disclosure for the 5-HT7 serotonin receptor were measured as follows.
Human recombinant 5-HT7 receptor expressed in CHO cells was used. A reaction mixture (final concentration 0.25 mL) prepared from 1 nM [^3H]LSD, 5-HT7 receptor membrane (15 μg/well), test compound of various concentrations and 50 mM Tris-HCl buffer (pH 7.4) containing 10 mM MgCl2 and 0.1 mM EDTA was incubated at 25° C. for 90 minutes. After the incubation, reaction was terminated by rapid filtration through Whatman GF/C glass fiber filter previously soaked in 0.3% polyethyleneimine using a Brandel harvester and washed with cold 50 mM Tris-HCl buffer. The filter was covered with MeltiLex, sealed in a sample bag and dried in an oven. Counting was carried out using MicroBeta (Wallac). Nonspecific binding was measured in the presence of 0.5 μM mianserin. The Ki value of the test compound was obtained from nonlinear regression analysis (GraphPad Prism Program, San Diego, USA) of isotherms obtained by repeating experiments 3 times in duplicate test tubes at 10-11 varied concentrations.
The % inhibition at 10 μM and binding affinity (Ki) of the novel compound according to the present disclosure for the 5-HT7 serotonin receptor are given in Table 1.

T1 sequence (P34969 whole entry): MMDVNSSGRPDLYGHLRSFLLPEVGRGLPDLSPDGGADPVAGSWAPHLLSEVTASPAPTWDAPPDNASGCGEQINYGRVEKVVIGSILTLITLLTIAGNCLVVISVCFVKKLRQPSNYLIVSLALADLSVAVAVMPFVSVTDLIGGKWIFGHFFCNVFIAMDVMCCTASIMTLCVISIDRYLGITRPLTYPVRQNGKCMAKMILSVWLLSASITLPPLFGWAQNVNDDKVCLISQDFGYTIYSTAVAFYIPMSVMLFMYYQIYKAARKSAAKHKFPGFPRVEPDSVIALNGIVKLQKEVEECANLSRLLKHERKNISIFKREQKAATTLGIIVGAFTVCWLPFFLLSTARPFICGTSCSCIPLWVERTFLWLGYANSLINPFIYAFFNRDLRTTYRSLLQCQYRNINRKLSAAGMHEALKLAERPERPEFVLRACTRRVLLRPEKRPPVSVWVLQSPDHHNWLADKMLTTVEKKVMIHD

| Compound | Ki [nM] | inhibition at 10 µM [%] |
| --- | --- | --- |
| CCOc1ccccc1N1CCN(Cc2ccccc2-c2ccccc2)CC1 [Compound 9, 1-(biphenyl-2-ylmethyl)-4-(2-ethoxyphenyl)piperazine] | 192 | 86.2 |
| Cc1cc(C)cc(N2CCN(Cc3ccccc3-c3ccccc3)CC2)c1 [Compound 22, 1-(biphenyl-2-ylmethyl)-4-(3,5-dimethylphenyl)piperazine] | 367 | 84 |
| c1ccc(-c2ccccc2CN2CCN(c3ccccc3)CC2)cc1 [Compound 1, 1-(biphenyl-2-ylmethyl)-4-phenylpiperazine] | 537 | 59.7 |
| COc1ccccc1N1CCN(Cc2ccccc2-c2ccccc2)CC1 [Compound 8, 1-(biphenyl-2-ylmethyl)-4-(2-methoxyphenyl)piperazine] | 432 | 95.1 |
| Cc1cccc(N2CCN(Cc3cccc(-c4ccccc4)c3)CC2)c1 [Compound 47, 1-(biphenyl-3-ylmethyl)-4-(3-methylphenyl)piperazine] | 15 | 95.4 |
| FC(F)(F)c1cccc(N2CCN(Cc3ccccc3-c3ccccc3)CC2)c1 [Compound 25, 1-(biphenyl-2-ylmethyl)-4-(3-(trifluoromethyl)phenyl)piperazine] | 64 | 95.9 |
| Fc1cccc(N2CCN(Cc3cccc(-c4ccccc4)c3)CC2)c1 [Compound 36, 1-(biphenyl-3-ylmethyl)-4-(3-fluorophenyl)piperazine] | 79 | 91.3 |
| Clc1ccccc1N1CCN(Cc2cccc(-c3ccccc3)c2)CC1 [Compound 38, 1-(biphenyl-3-ylmethyl)-4-(2-chlorophenyl)piperazine] | 66 | 88.3 |
| CC(C)c1ccccc1N1CCN(Cc2ccccc2-c2ccccc2)CC1 [Compound 23, 1-(biphenyl-2-ylmethyl)-4-(2-isopropylphenyl)piperazine] | 274 | 87 |
| Cc1ccc(C)c(N2CCN(Cc3ccccc3-c3ccccc3)CC2)c1 [Compound 21, 1-(biphenyl-2-ylmethyl)-4-(2,5-dimethylphenyl)piperazine] | 658 | 93.8 |
| c1ccc(-c2ccccc2CN2CCN(c3ccccc3-c3ccccc3)CC2)cc1 [Compound 24, 1-(biphenyl-2-ylmethyl)-4-(biphenyl-2-yl)piperazine] | 256 | 93.8 |
